Measured values as given in the NIST ThermoML archive (doi:10.1016/j.jct.2008.08.010).
Numbers after ± are expanded uncertainties.

Experiments:
[1] = 101.33 kPa, Liquid, Vibrating tube method
[2] = refractive index (Na D-line) (dimensionless); details: 101.33 kPa, Liquid, Standard Abbe refractometry

| SMILES | mass density ([1]; 298.2 K) | mass density ([1]; 299.2 K) | mass density ([1]; 300.2 K) | mass density ([1]; 301.2 K) | mass density ([1]; 302.2 K) | mass density ([1]; 303.2 K) | mass density ([1]; 304.2 K) | mass density ([1]; 305.2 K) | mass density ([1]; 306.2 K) | mass density ([1]; 307.2 K) | mass density ([1]; 308.2 K) | mass density ([1]; 313.2 K) | mass density ([1]; 318.2 K) | mass density ([1]; 323.2 K) | mass density ([1]; 333.2 K) | mass density ([1]; 343.2 K) | mass density ([1]; 353.2 K) | refractive index ([2]; 298.2 K) | refractive index ([2]; 299.2 K) | refractive index ([2]; 300.2 K) | other results |
| --- | --- | --- | --- | --- | --- | --- | --- | --- | --- | --- | --- | --- | --- | --- | --- | --- | --- | --- | --- | --- | --- |
| CCCCn1cc[n+](C)c1.F[P-](F)(F)(F)(F)F [1-butyl-3-methylimidazolium hexafluorophosphate] | 1363.9 ± 0.9 kg/m3 | 1363.2 ± 0.9 kg/m3 | 1362.4 ± 0.9 kg/m3 | 1361.6 ± 0.9 kg/m3 | 1360.8 ± 0.9 kg/m3 | 1360.1 ± 0.9 kg/m3 | 1359.3 ± 0.9 kg/m3 | 1358.5 ± 0.9 kg/m3 | 1357.8 ± 0.9 kg/m3 | 1357 ± 0.9 kg/m3 | 1356.2 ± 0.9 kg/m3 | 1352.8 ± 0.9 kg/m3 | 1348.8 ± 0.9 kg/m3 | 1344.9 ± 0.9 kg/m3 | 1336.9 ± 0.9 kg/m3 | 1329 ± 0.9 kg/m3 | 1321.1 ± 0.9 kg/m3 | 1.4095 ± 0.0007 | 1.4093 ± 0.0007 | 1.4091 ± 0.0007 | refractive index ([2]; 301.2 K): 1.4089 ± 0.0007; refractive index ([2]; 302.2 K): 1.4087 ± 0.0007; refractive index ([2]; 303.2 K): 1.4085 ± 0.0007; refractive index ([2]; 304.2 K): 1.4083 ± 0.0007; refractive index ([2]; 305.2 K): 1.4081 ± 0.0007; refractive index ([2]; 306.2 K): 1.4079 ± 0.0007; refractive index ([2]; 307.2 K): 1.4077 ± 0.0007; refractive index ([2]; 308.2 K): 1.4075 ± 0.0007 |
| CCCCn1cc[n+](C)c1.F[B-](F)(F)F [1-butyl-3-methylimidazolium tetrafluoroborate] | 1201 ± 0.9 kg/m3 | 1200.3 ± 0.9 kg/m3 | 1199.6 ± 0.9 kg/m3 | 1199 ± 0.9 kg/m3 | 1198.3 ± 0.9 kg/m3 | 1197.6 ± 0.9 kg/m3 | 1196.9 ± 0.9 kg/m3 | 1196.2 ± 0.9 kg/m3 | 1195.6 ± 0.9 kg/m3 | 1194.9 ± 0.9 kg/m3 | 1194.2 ± 0.9 kg/m3 | 1190.8 ± 0.9 kg/m3 | 1187.4 ± 0.9 kg/m3 | 1184 ± 0.9 kg/m3 | 1177.2 ± 0.9 kg/m3 | 1170.4 ± 0.9 kg/m3 | 1163.6 ± 0.9 kg/m3 | 1.4218 ± 0.0007 | 1.4216 ± 0.0007 | 1.4213 ± 0.0007 | refractive index ([2]; 301.2 K): 1.4211 ± 0.0007; refractive index ([2]; 302.2 K): 1.4208 ± 0.0007; refractive index ([2]; 303.2 K): 1.4206 ± 0.0007; refractive index ([2]; 304.2 K): 1.4204 ± 0.0007; refractive index ([2]; 305.2 K): 1.4201 ± 0.0007; refractive index ([2]; 306.2 K): 1.4199 ± 0.0007; refractive index ([2]; 307.2 K): 1.4197 ± 0.0007; refractive index ([2]; 308.2 K): 1.4195 ± 0.0007 |
| CCCCn1cc[n+](C)c1.O=S(=O)([O-])C(F)(F)F [1-butyl-3-methylimidazolium trifluoromethanesulfonate] | 1303.8 ± 1.5 kg/m3 | 1303 ± 1.5 kg/m3 | 1302.3 ± 1.5 kg/m3 | 1301.5 ± 1.5 kg/m3 | 1300.8 ± 1.5 kg/m3 | 1300 ± 1.5 kg/m3 | 1299.2 ± 1.5 kg/m3 | 1298.5 ± 1.5 kg/m3 | 1297.7 ± 1.5 kg/m3 | 1297 ± 1.5 kg/m3 | 1296.2 ± 1.5 kg/m3 | 1292.4 ± 1.5 kg/m3 | 1288.6 ± 1.5 kg/m3 | 1284.7 ± 1.5 kg/m3 | 1277.1 ± 1.5 kg/m3 | 1269.5 ± 1.4 kg/m3 | 1261.9 ± 1.4 kg/m3 | 1.4368 ± 0.0008 | 1.4366 ± 0.0008 | 1.4364 ± 0.0008 | refractive index ([2]; 301.2 K): 1.4362 ± 0.0008; refractive index ([2]; 302.2 K): 1.436 ± 0.0008; refractive index ([2]; 303.2 K): 1.4357 ± 0.0008; refractive index ([2]; 304.2 K): 1.4355 ± 0.0008; refractive index ([2]; 305.2 K): 1.4352 ± 0.0008; refractive index ([2]; 306.2 K): 1.435 ± 0.0008; refractive index ([2]; 307.2 K): 1.4348 ± 0.0008; refractive index ([2]; 308.2 K): 1.4346 ± 0.0008 |
| CCCCn1cc[n+](C)c1.COS(=O)(=O)[O-] [1-butyl-3-methylimidazolium methyl sulfate] | 1205.7 ± 1.4 kg/m3 | 1205 ± 1.4 kg/m3 | 1204.4 ± 1.4 kg/m3 | 1203.8 ± 1.4 kg/m3 | 1203.1 ± 1.4 kg/m3 | 1202.5 ± 1.4 kg/m3 | 1201.9 ± 1.4 kg/m3 | 1201.2 ± 1.4 kg/m3 | 1200.6 ± 1.4 kg/m3 | 1199.9 ± 1.4 kg/m3 | 1199.3 ± 1.4 kg/m3 | 1196.2 ± 1.4 kg/m3 | 1193 ± 1.4 kg/m3 | 1189.9 ± 1.4 kg/m3 | 1183.5 ± 1.4 kg/m3 | 1177 ± 1.4 kg/m3 | 1170.6 ± 1.4 kg/m3 | 1.4792 ± 0.0008 | 1.4789 ± 0.0008 | 1.4787 ± 0.0008 | refractive index ([2]; 301.2 K): 1.4784 ± 0.0008; refractive index ([2]; 302.2 K): 1.4782 ± 0.0008; refractive index ([2]; 303.2 K): 1.4779 ± 0.0008; refractive index ([2]; 304.2 K): 1.4776 ± 0.0008; refractive index ([2]; 305.2 K): 1.4774 ± 0.0008; refractive index ([2]; 306.2 K): 1.4771 ± 0.0008; refractive index ([2]; 307.2 K): 1.4768 ± 0.0008; refractive index ([2]; 308.2 K): 1.4766 ± 0.0008 |
